Data on six compounds can be found in article PMC9944867, “Mechanistic in vitro studies indicate that the clinical drug–drug interactions between protease inhibitors and rosuvastatin are driven by inhibition of intestinal BCRP and hepatic OATP1B1 with minimal contribution from OATP1B3, NTCP and OAT3” (Pharmacology Research & Perspectives, 2023).

SMILES strings stand for the structures. Several values for one entry are separate records, joined by “and”; a condition that tells them apart may be missing. Equal entries are not always repeated. Entries after “also recorded” stand apart in the source; their conditions may differ. Structures can show the parent of a compound that is named as a salt. Where two headings read alike, the source gives them in different places. Marks after values point to notes of the source that are not given here.

Series [1] has as its system OAT3. Details: method as in Yoshida et al.[32]. To be noted: up to 10 μM; ref Yoshida et al.[32]; cited from earlier work.
Another series has as its target T1, human OATP1B1 (SLCO1B1) (Homo sapiens, UniProt Q9Y6L6).
T1 sequence (Q9Y6L6 1-691): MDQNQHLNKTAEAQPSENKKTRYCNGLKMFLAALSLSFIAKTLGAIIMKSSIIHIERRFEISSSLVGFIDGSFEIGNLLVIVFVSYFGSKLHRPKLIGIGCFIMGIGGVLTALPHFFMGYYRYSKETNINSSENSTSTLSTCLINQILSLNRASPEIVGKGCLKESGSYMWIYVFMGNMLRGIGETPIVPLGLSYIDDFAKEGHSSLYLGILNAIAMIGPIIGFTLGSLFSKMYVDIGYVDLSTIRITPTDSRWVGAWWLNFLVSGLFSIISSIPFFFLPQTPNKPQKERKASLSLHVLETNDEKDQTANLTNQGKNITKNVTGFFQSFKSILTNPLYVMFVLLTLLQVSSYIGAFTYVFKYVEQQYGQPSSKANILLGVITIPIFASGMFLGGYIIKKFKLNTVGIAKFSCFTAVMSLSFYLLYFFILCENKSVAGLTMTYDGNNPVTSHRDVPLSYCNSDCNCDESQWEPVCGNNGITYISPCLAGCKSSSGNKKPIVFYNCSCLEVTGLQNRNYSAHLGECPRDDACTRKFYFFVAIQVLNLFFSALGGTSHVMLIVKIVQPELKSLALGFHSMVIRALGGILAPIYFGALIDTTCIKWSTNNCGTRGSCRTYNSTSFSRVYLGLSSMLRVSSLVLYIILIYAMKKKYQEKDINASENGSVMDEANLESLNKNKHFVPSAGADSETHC
The series is described as follows: OATP1B1 inhibition in transporter-expressing HEK293 cells, [3H]-estradiol 17β-D-glucuronide uptake (IC50 determination). To be noted: OATP1B1-mediated transport of [3H]-estradiol 17β-D-glucuronide (0.02 μM), HEK293. Here is the method: (§1) OATP1B1, OATP1B3, NTCP and vector control cell lines were cultured and subsequent transporter assays conducted as described above using the same transporter‐specific probe substrates and incubation times. For OATP1B1, the probe substrate was [^3H]‐estradiol 17β‐D‐glucuronide (0.02 μM) incubated for 2 min, with rifamycin SV (100 μM) as positive control inhibitor. For IC50 determinations, the only difference to the method performed above was that the 15‐min pre‐incubation step contained a range of six concentrations of protease inhibitor drug, and subsequent incubations were conducted with the same six concentration levels of drug rather than with a single concentration.

For series [2] the following is noted: read-out: [Cmax] mean steady-state maximum plasma concentration, total drug, cited from earlier work.
The conditions of series [3]: human, in vivo.
The next series has as its target T2, human NTCP (SLC10A1) (Homo sapiens, UniProt Q14973).
T2 construct: host or cells: HEK293 TransportoCells
T2 sequence (Q14973 1-349): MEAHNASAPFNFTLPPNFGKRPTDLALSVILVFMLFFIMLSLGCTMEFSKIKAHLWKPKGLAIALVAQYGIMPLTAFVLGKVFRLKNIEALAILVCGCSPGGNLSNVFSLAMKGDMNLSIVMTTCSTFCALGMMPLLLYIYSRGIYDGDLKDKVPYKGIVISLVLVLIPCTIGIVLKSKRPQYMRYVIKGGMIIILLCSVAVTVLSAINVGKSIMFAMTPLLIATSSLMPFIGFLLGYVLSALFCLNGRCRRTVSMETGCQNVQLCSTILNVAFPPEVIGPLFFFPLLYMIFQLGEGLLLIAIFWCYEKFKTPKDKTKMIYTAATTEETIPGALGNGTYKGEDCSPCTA
The series is described as follows: NTCP single concentration inhibition screen in HEK293 cells. Conditions: ≥10x [Iin max u]: atazanavir 50 μM, darunavir 15 μM, lopinavir 5 μM, ritonavir 0.3 μM; [3H]-taurocholic acid 1 μM. The format is cell-based.

The nature of series [4]: Pharmacokinetic parameters of protease inhibitors in clinical interaction studies with rosuvastatin. To be noted: calculated, clinical dose of Table 5.
In series [5] the target is T3, BCRP (Homo sapiens, UniProt Q9UNQ0).
T3 sequence (Q9UNQ0 1-655): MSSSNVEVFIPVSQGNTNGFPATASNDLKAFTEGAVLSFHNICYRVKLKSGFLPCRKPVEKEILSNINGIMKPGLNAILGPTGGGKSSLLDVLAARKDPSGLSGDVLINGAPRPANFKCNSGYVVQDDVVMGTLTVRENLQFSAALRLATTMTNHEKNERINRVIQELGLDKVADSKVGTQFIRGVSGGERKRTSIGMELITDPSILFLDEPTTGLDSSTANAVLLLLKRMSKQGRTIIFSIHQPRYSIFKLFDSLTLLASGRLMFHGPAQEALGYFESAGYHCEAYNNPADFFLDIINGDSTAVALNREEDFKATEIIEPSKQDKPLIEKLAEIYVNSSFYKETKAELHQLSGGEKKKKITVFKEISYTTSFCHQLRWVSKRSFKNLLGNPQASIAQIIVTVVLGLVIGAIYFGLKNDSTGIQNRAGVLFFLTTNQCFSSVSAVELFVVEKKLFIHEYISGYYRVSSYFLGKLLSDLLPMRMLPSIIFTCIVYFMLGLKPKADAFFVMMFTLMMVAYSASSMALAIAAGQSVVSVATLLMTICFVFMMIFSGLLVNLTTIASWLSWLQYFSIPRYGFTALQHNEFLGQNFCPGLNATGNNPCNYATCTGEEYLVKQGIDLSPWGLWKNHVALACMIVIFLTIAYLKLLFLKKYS
Put plainly: Caco-2 unidirectional (B-A) BCRP inhibition assay, [3H]-estrone 3-sulfate transport (IC50 determination). Here is the method: The methodology used was adapted from the previously validated Caco‐2 unidirectional (basolateral to apical; B‐A) BCRP inhibition assay.[13]
The BCRP inhibition experiments were performed between day 18 to 22 post‐seeding. […] After pre‐incubation, transport buffer was removed and the appropriate donor solutions were added to the basolateral donor compartment. […] Receiver solutions (final DMSO concentration of ≤1 % v/v) in transport buffer containing either the corresponding concentration of test inhibitor or DMSO (vehicle control), and the fluorescent cell monolayer integrity marker lucifer yellow (100 μM), were added to the apical compartments (total volume = 90 μL). Incubations were conducted in triplicate wells per assay condition in a heated incubator at 37°C for 90 min. Following the incubation, the amount (pmol) of [^3H]‐estrone 3‐sulfate appearing in the receiver compartment was determined by sampling (50 μL) into a white walled clear bottomed multiwell plate, to which scintillation fluid (200 μL) was added, and then samples counted on a Microbeta2 liquid scintillation counter (PerkinElmer). The quantified amount (derived from disintegrations per minute; DPM) of [^3H]‐estrone 3‐sulfate was subsequently converted to concentration (pmol/mL) and used to calculate apparent permeability (Papp), as described previously.[18]

The test system of series [6] is BCRP. Details: method as in PMID 21612343. Conditions: ref [17]; cited from earlier work.
The target in series [7] is T4, OAT3 (Homo sapiens, UniProt Q8TCC7).
T4 construct: host or cells: HEK293 TransportoCells
T4 sequence (Q8TCC7 1-542): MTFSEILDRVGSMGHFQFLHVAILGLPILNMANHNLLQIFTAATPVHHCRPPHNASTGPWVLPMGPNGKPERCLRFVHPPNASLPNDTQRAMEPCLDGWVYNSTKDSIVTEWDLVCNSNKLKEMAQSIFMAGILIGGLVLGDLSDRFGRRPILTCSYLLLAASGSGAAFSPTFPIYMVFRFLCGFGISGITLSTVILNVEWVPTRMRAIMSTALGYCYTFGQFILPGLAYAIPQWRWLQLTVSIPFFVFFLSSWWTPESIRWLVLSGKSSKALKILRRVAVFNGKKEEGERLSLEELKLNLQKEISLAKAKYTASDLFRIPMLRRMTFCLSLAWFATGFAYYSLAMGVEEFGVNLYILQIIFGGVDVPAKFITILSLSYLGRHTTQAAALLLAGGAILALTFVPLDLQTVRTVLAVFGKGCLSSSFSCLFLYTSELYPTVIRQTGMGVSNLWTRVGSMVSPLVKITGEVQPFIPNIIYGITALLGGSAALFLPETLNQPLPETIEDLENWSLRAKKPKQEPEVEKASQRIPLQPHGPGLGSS
The series is described as follows: OAT3 single concentration inhibition screen in HEK293 cells. To be noted: human, HEK293 cells expressing OAT3 (with vector control cells), pH 7.4, probe [3H]-estrone 3-sulfate (1 μM); probenecid 300 μM; single concentration screens; read-out: Inhibition of OAT3 by positive control (mean), screen. The format is cell-based.

The target of another series is T5, OATP1B1 (Homo sapiens, UniProt Q9Y6L6).
T5 sequence (Q9Y6L6 1-691): T1 sequence (Q9Y6L6 1-691)
Put plainly: OATP1B1 inhibition in transporter-expressing HEK293 cells, [3H]-estradiol 17β-D-glucuronide uptake (IC50 determination). To be noted: human, HEK293 cells expressing OATP1B1 (with vector control cells), pH 7.4, probe [3H]-estradiol 17β-D-glucuronide (0.02 μM). Here is the method:
as §1

For the next series, the target named is T6, human OAT3 (SLC22A8) (Homo sapiens, UniProt Q8TCC7).
T6 construct: host or cells: HEK293 TransportoCells
T6 sequence (Q8TCC7 1-542): T4 sequence (Q8TCC7 1-542)
Put plainly: OAT3 single concentration inhibition screen in HEK293 cells. The format is cell-based. Conditions: ≥10x unbound [Cmax]: atazanavir 15 μM, darunavir 10 μM, lopinavir 3 μM, ritonavir 0.1 μM; probe 1 μM.

The conditions of series [8]: cited from earlier work.

Regarding `CC(C)CN(C[C@@H](O)[C@H](Cc1ccccc1)NC(=O)O[C@H]1CO[C@H]2OCC[C@H]21)S(=O)(=O)c1ccc(N)cc1` [darunavir], the “Inhibition of OAT3, published” value in the series on OAT3 [1] is reported as “no inhibition”. The IC50 against human OATP1B1 (SLCO1B1) (IC50, determined values from different occasions (OATP1B1), single occasion) is 12.4 µM and 7.89 µM and 8.29 µM; against human OATP1B1 (SLCO1B1) (IC50 mean (OATP1B1), mean (±SD) of three occasions) it was 9.53 µM; on BCRP [5], 126 µM and 154 µM and 148 µM; at BCRP [5] (IC50 mean (BCRP), BCRP-mediated B-A transport of [3H]-estrone 3-sulfate (1 μM), Caco-2, mean (±SD) of occasions, IC50 equates to Ki), 143 µM. The Cmax in series [2] (600 mg, ref Kakuda et al.[36]) is 10.6 µM. Also, in [3], the “[Ig] maximal enterocyte concentration” value is 73.0 ^b μM. For the same compound, the “[Iin max] maximum hepatic inlet concentration” value in [3] is reported as 24.2 ^b μM. The “Inhibition of NTCP-mediated probe substrate transport, single concentration screen” value on human NTCP (SLC10A1) is “neither darunavir nor ritonavir when tested at a single concentration greater than or equal to ten times their [Iin max u] produced inhibition; also recorded: not an inhibitor”. The “[Iin max u] unbound maximum hepatic inlet concentration” value in series [4] is 1.21 µM.

As for `C[C@]12CC[C@@H]3c4ccc(OS(=O)(=O)O)cc4CC[C@H]3[C@@H]1CCC2=O` [estrone 3‐sulfate, Estrone 3‐sulfate sodium salt], the Michaelis constant (Km) with BCRP [6] was 7.4 µM.

`CCCN(CCC)S(=O)(=O)c1ccc(C(=O)O)cc1` [probenecid]: at OAT3 [7], the inhibition at 3 min, 300 μM worked out at 90.6%.

On OATP1B1, `CO[C@H]1/C=C/O[C@@]2(C)Oc3c(C)c(O)c4c(O)c(cc(O)c4c3C2=O)NC(=O)/C(C)=C\C=C\[C@H](C)[C@H](O)[C@@H](C)[C@@H](O)[C@@H](C)[C@H](OC(C)=O)[C@@H]1C` [rifamycin SV, rifamycin SV sodium salt] yielded an inhibition at 2 min, 100 μM of 96.5 ± 3.2%.

As to `CC(C)c1nc(CN(C)C(=O)N[C@H](C(=O)N[C@@H](Cc2ccccc2)C[C@H](O)[C@H](Cc2ccccc2)NC(=O)OCc2cncs2)C(C)C)cs1` [ritonavir], the Cmax in [2] (clinical dose of Table 5, ref Elsby et al.[1]) is 0.93 µM. Moreover, the “Inhibition of OAT3-mediated [3H]-estrone 3-sulfate transport, single concentration screen” value on human OAT3 (SLC22A8) is “neither atazanavir, darunavir, lopinavir nor ritonavir inhibited OAT3 transport”. In addition, in series [4] ((FaFg × ka × dose)/Qent), the “[Ig] maximal enterocyte concentration” value is listed as 1.39 ^f μM. In [4], the “[Iin max u] unbound maximum hepatic inlet concentration” value was 0.0131 µM and the “[Iin max] maximum hepatic inlet concentration” value is listed as 1.19 ^f μM.

For `CC(C)c1nc(N(C)S(C)(=O)=O)nc(-c2ccc(F)cc2)c1/C=C/[C@@H](O)C[C@@H](O)CC(=O)O` [rosuvastatin], the “OAT3 ƒe” value in series [8] (active renal secretion, ref [1]) was 0.25. For the same compound, in series [8] (hepatic uptake, ref [1]), the “OATP1B1 ƒe” value is given as 0.38. Also, in series [8] (intestinal BCRP efflux as barrier to absorption, ref [1]), the fraction absorbed is 0.5. For the same compound, the “BCRP ƒe” value in [8] (intestinal BCRP efflux, ref [1]) is on record as 0.5. Also, in [8] (ref [13]), the “NTCP ƒe” value is recorded as 0.21, the “OATP1B3 ƒe” value was 0.11 and the “overall hepatic elimination ƒe” value was 0.7.

As usually defined, the IC50 is the concentration needed to halve the response being measured. A high value points to a need for much substance. What is called Km is the substrate concentration at which the rate is half of its maximum. Broadly, the inhibition is the change of the read-out against control, counted positive when it falls.
